# Tests used:
# [1] = target: T1, p38 MAP kinase (Homo sapiens, UniProt Q16539); assay: p38 MAP kinase phosphorylation assay (similar to Kumar); assay type: biochemical; settings: assay similar to the phosphorylation assay (Kumar)
# T1 construct: expressed in transfected cells; kinase immunoprecipitated from lysates
# Procedure: Alternative assays involving in vitro analysis of potential inhibitors include those where cells (HeLa) transfected with DNA coding for relevant kinases can be activated with substances such as sorbitol, IL-1, TNF, or PMA (phorbol myristate acetate). After immunoprecipitation of cell lysates, equal aliquots of immune complexes of the kinases are pre-incubated for an adequate time with a specific concentration of the potential inhibitor followed by addition of kinase substrate buffer mix containing labeled ATP and GST-ATF2 or MBP. After incubation, kinase reactions are ceased by the addition of SDS loading buffer. Phosphorylated substrate is resolved through SDS-PAGE and visualized and quantitated in a phosphorimager. Both p38 regulation, in terms of phosphorylation, and IC50 values can be determined by quantitation. See, for example Kumar,S., McDonnell, P., Gum, R., Hand, A., Lee, J., and Young, P. (1997) Biochem. Biophys. Res. Commun. 235, 533-538.
# [2] = test system: TNFα secretion from HPBMCs; assay: TNFα secretion from HPBMCs, ELISA; assay type: cell-based, human; settings: 1 μM SD, 6 hours
# Procedure: (§1) 5×10^6 HPBMCs were plated in 6-well. After 1 hour medium was removed and cells were treated with vehicle or 1μM p38 inhibitor in RPMI 1640 medium. After 1 hour cells were stimulated with 10% FCS only or 10 μg/ml CRP plus 10% FCS. After 6 hours conditioned medium was collected and IL-1b and TNFa levels were determined by ELISA. […] 5×10^6 HPBMCs were plated in 6-well. After I hour medium was removed and cells were treated with vehicle or […] p38 inhibitor in RPMI 1640 medium. After 1 hour cells were stimulated with 10% FCS only or 10 μg/ml CRP plus 10% FCS. After 2 hours RNA was extracted from the cells and TNFa (c) and IL-1b (d) expression levels were determined by real-time PCR as described in the Experimental section. […]
# Conditioned media from the treated cells were collected (6 to 20 hrs), and the level of secreted interleukin 6 (IL-6), interleukin 1 beta (IL-1 β), tumor necrosis factor alpha (TNFα), and interleukin 8 (IL-8) was determined by ELISA according to the manufacturer's instruction (Biosource International, Camarillo, Calif.). […]
# TNFα and IL-β are initial inflammatory cytokines produced when monocytes are activated during infalmmation. […] HPBMCs were incubated with either 10% FCS or CRP plus 10% FCS for 6 hours and secreted cytokines TNFα and IL-1β were measured by ELISA. […]
# [3] = test system: IL-1β mRNA in HPBMCs; assay: IL-1β gene expression in HPBMCs, real-time PCR; assay type: cell-based, human; settings: 1 μM SD, 2 hrs
# Procedure: as §1
# RNA was extracted from the cells using Qiagen RNA extraction kit according to the manufacturer's instruction. The expression of pro-inflammatory genes IL-1β, IL-6, IL-8, TNFα, COX-2, ET-1, TF were assessed by real-time PCR. […]
# Real-time RT-PCR was performed in a two-step manner. cDNA synthesis and real-time detection were carried out in a PTC-100™ Thermal Cycler (MJ Research Inc, Waltham, Mass.) and an ABI Prism™ 7700 Sequence Detection System (Applied Biosystems, Foster City, Calif.), respectively. […] Relative quantitation of gene expression was performed using the relative standard curve method. […]
# T1 sequence (Q16539 whole entry): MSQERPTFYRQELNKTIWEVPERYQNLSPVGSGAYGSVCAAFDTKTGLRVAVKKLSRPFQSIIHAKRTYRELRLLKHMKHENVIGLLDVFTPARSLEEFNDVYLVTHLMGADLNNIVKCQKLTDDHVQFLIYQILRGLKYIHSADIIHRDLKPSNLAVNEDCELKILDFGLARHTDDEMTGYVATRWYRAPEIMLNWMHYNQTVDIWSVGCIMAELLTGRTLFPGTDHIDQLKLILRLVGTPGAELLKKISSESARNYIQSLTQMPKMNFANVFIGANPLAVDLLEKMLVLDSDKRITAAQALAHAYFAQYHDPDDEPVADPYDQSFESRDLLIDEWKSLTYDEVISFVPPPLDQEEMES
smiles,measurement,setting,value
C[C@@H]1CN(Cc2ccc(F)cc2)[C@@H](C)CN1C(=O)c1cc2c(C(=O)C(=O)N(C)C)c[nH]c2cc1Cl [Compound 162],p38 MAP kinase activity,[1],exhibit p38 MAP kinase activity
same,"FCS induced TNFα secretion, sensitivity to p38 inhibition",[2]; 10% FCS,sensitive
same,inhibition of CRP-invoked TNFα secretion,[2]; CRP plus 10% FCS,strongly inhibited
same,inhibition of FCS induced expression of IL-1β gene,[3],attenuated

# Source: patent US20060019971A1, “Treatment of cardiovascular disease with inhibitors of p38 kinase” (priority 2003, published 2006)
